The results in this text go back to BindingDB's records for patent US11725000 (National Institute of Biological Sciences, Beijing, 2023).

The EC50 is the concentration needed to bring the measured effect to its halfway point. Read a high EC50 as a less potent agent.

For this test, the target named is T1, Succinate dehydrogenase [ubiquinone] iron-sulfur subunit, mitochondrial (Homo sapiens, UniProt P21912).
T1 sequence (P21912 whole entry): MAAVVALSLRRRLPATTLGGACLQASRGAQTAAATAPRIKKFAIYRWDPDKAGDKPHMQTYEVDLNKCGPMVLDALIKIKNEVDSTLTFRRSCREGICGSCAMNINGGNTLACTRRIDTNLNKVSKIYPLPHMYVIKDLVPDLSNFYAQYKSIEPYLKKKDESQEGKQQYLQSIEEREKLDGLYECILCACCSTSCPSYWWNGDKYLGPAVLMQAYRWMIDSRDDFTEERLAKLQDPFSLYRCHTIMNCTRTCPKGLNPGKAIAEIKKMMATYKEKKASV
As to the kind of experiment: Apoptosis Inhibition Assay. The text has this:
In order to identify the target protein of tTC09 apoptosis inhibitors, we synthesized two sets of probes for target identification based on the SAR study. The first set of probes was designed for direct activity based protein profiling (ABPP) with biotin tag linked at different site. […] TC09 apoptosis inhibitors could stabilize the mitochondrial respiratory chain after Bim/tBid overexpression and help maintain the normal function of mitochondria. A second set of probes with a terminal alkyne group designed for click-reaction-assisted ABPP were also prepared.
Compound `[O-][S+](CC1CC1)c1nc(-c2cccs2)cc(C(F)(F)F)n1` (stereo not given) [US11725000, Compound 10] had an EC50 of 2200 nM.
`[O-][S+](Cc1ccc(-c2ccccc2)cc1)c1nc(-c2cccs2)cc(C(F)(F)F)n1` (stereo not given) [US11725000, Compound 20] registered an EC50 of 257 nM. This EC50 is about 8.6-fold lower than that of the compound before.
To `CCC[S+]([O-])c1nc(-c2cccs2)cc(C(F)(F)F)n1` (stereo not given) [US11725000, Compound 5] belongs 1170 nM; to `N#Cc1cccc(C[S+]([O-])c2nc(-c3cccs3)cc(C(F)(F)F)n2)c1` (stereo not given) [US11725000, Compound 15], 3520 nM; to `O=S(=O)(CCc1ccccc1)c1nc(-c2cccs2)cc(C(F)(F)F)n1` [US11725000, Compound 26], 94 nM.
To `CCCS(=O)(=O)c1nc(-c2cccs2)cc(C(F)(F)F)n1` [US11725000, Compound 4] belongs 4210 nM; to `O=S(=O)(Cc1ccc2c(ccc[n+]2[O-])c1)c1nc(-c2cccs2)cc(C(F)(F)F)n1` [US11725000, Compound 23], 57 nM.
To `O=C(O)CC[S+]([O-])c1nc(-c2cccs2)cc(C(F)(F)F)n1` (stereo not given) [US11725000, Compound 28] belongs 499 nM; to `[O-][S+](Cc1ccccc1)c1nc(-c2cccs2)cc(C(F)(F)F)n1` (stereo not given) [US11725000, Compound 12], 3490 nM; to `O=S(=O)(Cc1cc(F)cc(F)c1)c1nc(-c2cccs2)cc(C(F)(F)F)n1` [US11725000, Compound 18], 1160 nM.
`CCOC(=O)CCS(=O)(=O)c1nc(-c2cccs2)cc(C(F)(F)F)n1` [US11725000, Compound 29] had an EC50 of 104 nM.
Take `CS(=O)(=O)c1nc(-c2cccs2)cc(C(F)(F)F)n1` [US11725000, Compound 1]: the EC50 lay within 1000 to 10000 nM.
To `[O-][S+](Cc1cc(F)cc(F)c1)c1nc(-c2cccs2)cc(C(F)(F)F)n1` (stereo not given) [US11725000, Compound 19] belongs 1140 nM; to `N#Cc1ccccc1C[S+]([O-])c1nc(-c2cccs2)cc(C(F)(F)F)n1` (stereo not given) [US11725000, Compound 14], 7030 nM; to `C[S+]([O-])c1nc(Cl)cc(-c2cccs2)n1` (stereo not given) [US11725000, Compound 33], 4480 nM.
To `[O-][S+](CCc1ccccc1)c1nc(-c2cccs2)cc(C(F)(F)F)n1` (stereo not given) [US11725000, Compound 27] belongs 13 nM; to `O=C1CCCN1CC[S+]([O-])c1nc(-c2cccs2)cc(C(F)(F)F)n1` (stereo not given) [US11725000, Compound 25], 69 nM; to `Cc1cc(-c2cccs2)nc(S(C)(=O)=O)n1` [US11725000, Compound 34], 817 nM.
To `C#Cc1cc(-c2cccs2)nc(S(C)(=O)=O)n1` [US11725000, Compound 35] belongs 995 nM.
For `O=S(=O)(Cc1ccc([N+]2([O-])CCOCC2)cc1)c1nc(-c2cccs2)cc(C(F)(F)F)n1` [US11725000, Compound 22], the EC50 turned out to be 1410 nM. This EC50 and that of the compound before are within 1.5-fold of each other.
To `[O-][S+](Cc1ccc2ncccc2c1)c1nc(-c2cccs2)cc(C(F)(F)F)n1` (stereo not given) [US11725000, Compound 24] belongs 110 nM; to `N#Cc1ccccc1CS(=O)(=O)c1nc(-c2cccs2)cc(C(F)(F)F)n1` [US11725000, Compound 13], 6350 nM; to `COC(=O)CCC[S+]([O-])c1nc(-c2cccs2)cc(C(F)(F)F)n1` (stereo not given) [US11725000, Compound 32], 64 nM.
To `CCOC(=O)CC[S+]([O-])c1nc(-c2cccs2)cc(C(F)(F)F)n1` (stereo not given) [US11725000, Compound 30] belongs 4880 nM; to `O=S(=O)(Cc1ccccc1)c1nc(-c2cccs2)cc(C(F)(F)F)n1` [US11725000, Compound 11], 6640 nM.
